Read-outs that look alike come from different tables or passages of the source.
How the values were obtained:
[1] = rat, in vivo; for i.v. AUC0-inf / i.v. CL / i.v. t1/2: iv, 2.5 mg/kg; for p.o. AUC0-inf / p.o. Cmax: po, 25 mg/kg
MbtA = MbtA (Mycobacterium tuberculosis, UniProt P71716); format: biochemical; details: for fold more potent in MbtA inhibition than the 3′-α-fluoro diastereomer: 14 vs 15, 16 vs 17; for Ki: read-out: Ki^app, apparent Ki against MbtA
[2] = test system: M. tuberculosis strain H37Rv; format: cell-based, Mycobacterium tuberculosis; details: for fold more potent in MIC than the 3′-α-fluoro diastereomer: 14 vs 15, 16 vs 17, M. tuberculosis H37Rv
[3] = rat, in vivo, cited from earlier work; for p.o. AUC0-inf / p.o. Cmax: po, 25 mg/kg
[4] = Single dose pharmacokinetics in cannulated rats

Sequence of MbtA (P71716 whole entry): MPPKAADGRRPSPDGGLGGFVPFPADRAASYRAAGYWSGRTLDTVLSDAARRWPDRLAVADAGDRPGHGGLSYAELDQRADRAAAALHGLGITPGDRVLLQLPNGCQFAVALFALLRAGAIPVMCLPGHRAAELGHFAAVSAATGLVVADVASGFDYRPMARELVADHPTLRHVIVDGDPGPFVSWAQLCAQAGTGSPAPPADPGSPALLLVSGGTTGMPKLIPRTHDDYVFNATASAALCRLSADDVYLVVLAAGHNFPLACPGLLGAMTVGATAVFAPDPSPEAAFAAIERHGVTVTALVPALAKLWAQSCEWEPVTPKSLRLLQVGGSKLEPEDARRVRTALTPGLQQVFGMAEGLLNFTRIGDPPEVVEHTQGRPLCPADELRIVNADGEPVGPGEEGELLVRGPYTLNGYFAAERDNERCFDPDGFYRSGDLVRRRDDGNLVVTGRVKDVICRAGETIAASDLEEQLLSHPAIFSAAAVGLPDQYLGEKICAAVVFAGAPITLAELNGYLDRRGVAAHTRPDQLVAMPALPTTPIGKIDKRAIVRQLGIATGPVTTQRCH

| Structure (SMILES) | F (relative oral bioavailability) [1] [%] | i.v. AUC0-inf [1] [μg.min.mL^–1] | i.v. CL [1] [mL.min^–1.kg^–1] | i.v. t1/2 [1] [min] | p.o. AUC0-inf [1] [μg.min.mL^–1] | p.o. Cmax [1] [μg.mL^–1] | Ki (MbtA) [nM] | MIC [2] [µM] | other results |
| --- | --- | --- | --- | --- | --- | --- | --- | --- | --- |
| CCN(CC)CC.Nc1ncnc2c1ncn2[C@@H]1O[C@H](CNS(=O)(=O)NC(=O)c2ccccc2O)[C@H](F)[C@H]1F [compound 16, 9-[2,3,5-Trideoxy-2,3-difluoro-5-{N-(N-2-hydroxybenzoyl)sulfamoyl}amino-β-D-xylofuranosyl]adenine Triethylammonium Salt] | 11.4 ± 0.3 | 312 ± 54 | 8.5 ± 1.6 | 17.2 ± 1.3 | 362 ± 85 | 0.97 ± 0.42 | 1.4 ± 0.3 | 0.78 | fold more potent in MbtA inhibition than the 3′-α-fluoro diastereomer (MbtA): ~100 fold; fold more potent in MIC than the 3′-α-fluoro diastereomer [2]: ca. 50 fold |
| Nc1ncnc2c1ncn2[C@@H]1O[C@H](CNS(=O)(=O)NC(=O)c2ccccc2O)[C@@H](O)[C@H]1O [compound 11] | – | – | – | – | – | – | – | – | i.v. AUC0-inf ([3]; iv, 2.5 mg/kg): 304 ± 60 μg.min.mL^–1; i.v. CL ([3]; iv, 2.5 mg/kg): 8.4 ± 1.9 mL.min^–1.kg^–1; i.v. t1/2 ([3]; iv, 2.5 mg/kg): 10.6 ± 0.7 min; p.o. AUC0-inf [3]: 100 ± 14 μg.min.mL^–1; p.o. Cmax [3]: 0.70 ± 0.07 μg.mL^–1; F (relative oral bioavailability) [3]: 3.5 ± 0.2% |
| CCN(CC)CC.Nc1ncnc2c1ncn2[C@@H]1O[C@H](CNS(=O)(=O)NC(=O)c2ccccc2O)[C@@H](O)[C@H]1F [compound 12, 9-[2,5-Dideoxy-2-fluoro-5-{N-(N-2-hydroxybenzoyl)sulfamoyl}amino-β-D-ribofuranosyl]adenine Triethylammonium Salt] | 1.8 ± 0.9 | 1040 ± 330 | 2.5 ± 0.9 | 32.5 ± 7.4 | 187 ± 11 | 0.46 ± 0.30 | 1.7 to 1.8 | 0.19 | Ki (MbtA; listed as C00001): 1.7 ± 0.1 nM |
| Nc1ncnc2c1ncn2[C@@H]1O[C@H](COS(=O)(=O)NC(=O)c2ccccc2O)[C@@H](O)[C@H]1O [compound 10, 5′-O-[N-(salicyl)sulfamoyl]adenosine] | – | – | – | – | – | – | – | – | i.v. AUC0-inf ([3]; iv, 2.5 mg/kg): 519 ± 115 μg.min.mL^–1; i.v. t1/2 ([3]; iv, 2.5 mg/kg): 11.2 ± 2.2 min; p.o. AUC0-inf [3]: 66 ± 41 μg.min.mL^–1; p.o. Cmax [3]: 0.40 ± 0.20 μg.mL^–1; F (relative oral bioavailability) [3]: 1.3 ± 0.7% |
| CCN(CC)CC.Nc1ncnc2c1ncn2[C@@H]1O[C@H](CNS(=O)(=O)NC(=O)c2ccccc2O)[C@@H](O)[C@@H]1F [compound 13, 9-[2,5-Dideoxy-2-fluoro-5-{N-(N-2-hydroxybenzoyl)sulfamoyl}amino-β-D-arabinofuranosyl]adenine Triethylammonium Salt] | 4.7 ± 1.1 | 913 ± 65 | 2.7 ± 0.2 | 31.7 ± 1.9 | 422 ± 70 | 1.09 ± 0.03 | 1.7 to 1.8 | 0.15 | Ki (MbtA; listed as C00003): 1.8 ± 0.1 nM |
| CCN(CC)CC.Nc1ncnc2c1ncn2[C@@H]1O[C@H](CNS(=O)(=O)NC(=O)c2ccccc2O)[C@@H](F)[C@H]1O [compound 15, 9-[3,5-Dideoxy-3-fluoro-5-{N-(N-2-hydroxybenzoyl)sulfamoyl}amino-β-D-ribofuranosyl]adenine Triethylammonium Salt] | 3.5 ± 0.2 | 807 ± 78 | 3.1 ± 0.3 | 37.0 ± 1.7 | 266 ± 2 | 0.92 ± 0.04 | 6.4 ± 0.3 | 2.3 | – |
| CCN(CC)CC.Nc1ncnc2c1ncn2[C@@H]1O[C@H](CNS(=O)(=O)NC(=O)c2ccccc2O)[C@@H](F)[C@H]1F [compound 17, 9-[2,3,5-Trideoxy-2,3-difluoro-5-{N-(N-2-hydroxybenzoyl)sulfamoyl}amino-β-D-ribofuranosyl]adenine Triethylammonium Salt] | 5.3 ± 1.3 | 10100 ± 2200 | 0.24 ± 0.06 | 267 ± 36 | 4730 ± 540 | 5.99 ± 0.56 | 139 ± 10 | 37 | fold increase in half-life compared to SAL-AMS (10) [4]: ca. 25 fold; fold higher Cmax compared to SAL-AMS (10) ([4]; p.o. 25 mg/kg): 15 fold; fold increase in F% compared to SAL-AMS (10) ([4]; p.o. 25 mg/kg): fourfold; fold increased oral exposure (oral AUC) compared to SAL-AMS (10) ([4]; p.o. 25 mg/kg): ca. 75 fold |
| CCN(CC)CC.Nc1ncnc2c1ncn2[C@@H]1O[C@H](CNS(=O)(=O)NC(=O)c2ccccc2O)[C@H](F)[C@H]1O [compound 14, 9-[3,5-Dideoxy-3-fluoro-5-{N-(N-2-hydroxybenzoyl)sulfamoyl}amino-β-D-xylofuranosyl]adenine Triethylammonium Salt] | 2.3 ± 0.4 | 366 ± 33 | 6.9 ± 0.3 | 17.4 ± 1.4 | 84 ± 12 | 0.64 ± 0.22 | 0.6 ± 0.3 | 0.60 | fold more potent in MbtA inhibition than the 3′-α-fluoro diastereomer (MbtA): approximately 10 fold; fold more potent in MIC than the 3′-α-fluoro diastereomer [2]: fourfold |

From PMC4674167 (The Journal of organic chemistry, 2015)
